How the values were obtained:
rat TAAR1 = rat TAAR1 (Rattus norvegicus (Rat), UniProt Q923Y9); assay: Radioligand binding assay on rat TAAR1;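 also: membranes from HEK293 cells stably transfected with rat TAAR1, tritiated TAAR1 radioligand, 1 h incubation at 4 °C, nonspecific binding determined with excess unlabeled ligand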
Protocol: Membrane Preparation and Radioligand Binding.
HEK-293 cells stably expressing rat TAAR1 were maintained at 37° C. and 5% CO2 in DMEM high glucose medium, containing fetal calf serum (10%, heat inactivated for 30 min at 56° C.), penicillin/streptomycin (1%), and 375 μg/ml geneticin (Gibco). Cells were released from culture flasks using trypsin/EDTA, harvested, washed twice with ice-cold PBS (without Ca^2+ and Mg^2+), pelleted at 1'000 rpm for 5 min at 4° C., frozen and stored at −80° C. Frozen pellets were suspended in 20 ml HEPES-NaOH (20 mM, pH 7.4) containing 10 mM EDTA and homogenized with a Polytron (PT 6000, Kinematica) at 14′000 rpm for 20 s. The homogenate was centrifuged at 48'000×g for 30 min at 4° C. Subsequently, the supernatant was removed and discarded, and the pellet resuspended in 20 ml HEPES-NaOH (20 mM, pH 7.4) containing 0.1 mM EDTA using the Polytron (20 s at 14'000 rpm). This procedure was repeated and the final pellet resuspended in HEPES-NaOH containing 0.1 mM EDTA and homogenized using the Polytron. Typically, aliquots of 2 ml membrane portions were stored at −80° C. With each new membrane batch the dissociation constant (Kd) was determined via a saturation curve. […] Nonspecific binding was defined as the amount of 3 [H]—(S)-4-[(ethyl-phenyl-amino)-methyl]-4,5-dihydro-oxazol-2-ylamine bound in the presence of 10 M unlabeled ligand. All compounds were tested at a broad range of concentrations (10 pM to 10 μM) in duplicates. […] The 96 deep well plates were incubated for 1 hr at 4° C. Incubations were terminated by rapid filtration through Unifilter-96 plates (Packard Instrument Company) and glass filters GF/C (Perkin Elmer) presoaked for 1 hr in polyethylenimine (0.3%) and washed 3 times with 1 ml of cold binding buffer. After addition of 45 μl of Microscint 40 (PerkinElmer) the Unifilter-96 plate was sealed and after 1 hr the radioactivity counted using a TopCount Microplate Scintillation Counter (Packard Instrument Company).

mouse TAAR1 = mouse TAAR1 (Mus musculus (Mouse), UniProt Q923Y8); assay: Radioligand binding assay on mouse TAAR1
mouse TAAR1, sequence (Q923Y8 whole entry): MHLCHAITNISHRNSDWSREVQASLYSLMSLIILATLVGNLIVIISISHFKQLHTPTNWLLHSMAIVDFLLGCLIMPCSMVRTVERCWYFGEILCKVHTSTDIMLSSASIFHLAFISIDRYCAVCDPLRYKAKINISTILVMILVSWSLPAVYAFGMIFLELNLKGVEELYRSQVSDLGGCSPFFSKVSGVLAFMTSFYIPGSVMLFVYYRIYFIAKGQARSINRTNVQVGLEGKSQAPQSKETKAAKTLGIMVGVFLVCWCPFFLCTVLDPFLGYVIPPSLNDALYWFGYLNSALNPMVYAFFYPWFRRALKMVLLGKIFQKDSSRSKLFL

rat TAAR1, sequence (Q923Y9 whole entry): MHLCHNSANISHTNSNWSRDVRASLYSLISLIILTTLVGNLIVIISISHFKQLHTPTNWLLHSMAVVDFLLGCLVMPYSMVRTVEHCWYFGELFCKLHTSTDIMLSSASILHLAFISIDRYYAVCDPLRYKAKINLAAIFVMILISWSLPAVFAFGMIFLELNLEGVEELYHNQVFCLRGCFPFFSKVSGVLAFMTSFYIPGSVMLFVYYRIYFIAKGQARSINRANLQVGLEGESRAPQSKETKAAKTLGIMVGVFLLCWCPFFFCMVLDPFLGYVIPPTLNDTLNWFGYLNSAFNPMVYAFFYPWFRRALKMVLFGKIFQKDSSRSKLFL

Structure (SMILES) | Ki (rat TAAR1) [nM] | Ki (mouse TAAR1) [nM]
CC(C)Cc1cc(C(=O)Nc2ccc([C@@H]3O[C@H]4CN[C@@H]3C4)cc2)[nH]n1 [Example 101, 3-Isobutyl-N-[4-[(1R,3S,4R)-2-oxa-5-azabicyclo[2.2.1]heptan-3-yl]phenyl]-1H-pyrazole-5-carboxamide] | 80.7 | 5.7
O=C(Nc1ccc([C@@H]2O[C@H]3CN[C@@H]2C3)cc1)c1ccc(C(F)(F)F)cn1 [Example 71, N-[4-[(1R,3S,4R)-2-Oxa-5-azabicyclo[2.2.1]heptan-3-yl]phenyl]-5-(trifluoromethyl)pyridine-2-carboxamide] | 13.5 | 5.4
FC(F)(F)c1ccc(Nc2ccc([C@H]3O[C@@H]4CN[C@H]3C4)cc2)cn1 [Example 61, N-[4-[(1S,3R,4S)-2-Oxa-5-azabicyclo[2.2.1]heptan-3-yl]phenyl]-6-(trifluoromethyl)pyridin-3-amine] | 715 | 7.7

— patent US9790230B2 (Hoffmann-La Roche Inc., priority 2015, dated 2017)
